Legend:
[1] = tested on: PC3-CXCR4 cells; experiment: Cell-associated activity in PC3-CXCR4 cells; format: cell-based, human; settings: 1 h
Method: Maximum cell-associated activity was calculated by subtracting the cell uptake of the radioactive ligand at the highest non-radioactive ligand concentration of 10 µM (which we considered to be non-specific uptake/binding) from the cell uptake at the lowest non-radioactive ligand concentration of 10^−5 µM.

[2] = molecular target: T1, CXCR4 (Homo sapiens, UniProt P61073); experiment: Competition binding assay vs [^18F]RPS-544 in PC3-CXCR4 cells; settings: approx. 5 pM [^18F]RPS-544; p = 0.85
T1 construct: expressed in transfected cells; host or cells: PC3 (human prostate cancer) cells stably transduced with CXCR4
Method: (§1) PC3-CXCR4 cells were plated in 12-well plates at a density of 500,000 cells per well and incubated for 48 h at 37 °C/5% CO2. Prior to the binding assay the cells were incubated in fresh media and 370–555 kBq of [^68Ga]Pentixafor or [^18F]RPS-544 was added to each well. The corresponding concentration of [^68Ga]Pentixafor in each well was 100 nM, and the concentration of [^18F]RPS-544 was approximately 5 pM. Then non-radioactive ligands were added to give a final ligand concentration in the range 0.001–10,000 nM. A total of eight concentrations were studied, and each concentration was tested in triplicate. The cells were incubated for 60 min at 37 °C/5% CO2. The media was removed under suction, the cells were washed with cold PBS 1X and detached and transferred to tubes for counting in 1 M NaOH. The cells were counted in a Wizard^2 Gamma Counter (PerkinElmer, Waltham, MA, USA). Non-specific binding was subtracted, and the IC50 values were determined by assuming a simple competitive binding interaction and fitting the data to a sigmoidal Hill plot in Origin 9.0 (OriginLab, Northampton, MA, USA). Potencies are expressed as IC50 ± standard deviation (Supplemental Data, Figure S7).

[3] = tested on: PC3-CXCR4 cells; experiment: Internalization in PC3-CXCR4 cells; format: cell-based, human; settings: after 135 min incubation
Method: Internalization studies were performed for [^18F]RPS-534 and [^18F]RPS-547 in a time dependent manner. PC3-CXCR4 cells were plated as described above in 12-well plates and incubated for 48 h prior to the experiment. The media was exchanged and [^18F]RPS-534 or [^18F]RPS-547 (10^−5 μM; approximately 400 kBq) was added to each well. All experiments were performed in triplicate. […] Then the media was removed under suction at the corresponding temperature, and the cells washed with 1 mL PBS. Cell surface-bound activity was collected by two successive 5 min incubations of 0.5 mL of a 50 mM glycine buffer (pH = 2.8) performed at 4 °C or 37 °C. The cells were then washed with 1 mL ice-cold PBS and detached with 1 mL ice cold 1 M NaOH. Detached cells were collected and counted along with the washes. An aliquot of the administered radioactivity (10% IA) was also counted and used for quantification. The activity found in the NaOH fractions of the 4 °C plates was subtracted from the activities of the fractions at 37 °C to correct for non-specific binding. Internalized activity was expressed as the fraction of activity in the NaOH fraction relative to the total activity added.

[4] = molecular target: T1, CXCR4; experiment: Competition binding assay vs [^68Ga]Pentixafor in PC3-CXCR4 cells
Method: as §1

[5] = molecular target: T1, CXCR4; experiment: Saturation binding assay in PC3-CXCR4 cells
Method: To determine the dissociation constants, saturation binding assays were performed in the PC3-CXCR4 cells. The cells were plated as described above, and approximately 5 nM of the radioligand was added to each well. Then the corresponding non-radioactive ligand was added to give a final concentration in the range 0.001–10,000 nM. A total of eight concentrations were tested, and each concentration was tested in triplicate. The samples were washed and counted as described above. Non-specific binding was subtracted, and Kd values were determined by performing a nonlinear one site binding curve fit with equation y = (Bmax · x)/(Kd + x). Values are expressed as Kd ± standard deviation (Supplemental Data, Figure S8).

[6] = tested on: PC3-CXCR4 xenograft tumors; experiment: Biodistribution in mice bearing bilateral PC3-WT/PC3-CXCR4 xenograft tumors; format: in vivo, BALB/c mice
Method: (§2) All animal studies were approved by the Institutional Animal Care and Use Committee of Weill Cornell Medicine (Protocol Number: 2015-0066) and were undertaken in accordance with the guidelines set forth by the USPHS Policy on Humane Care and Use of Laboratory Animals. Animals were housed under standard conditions in approved facilities with 12 h light/dark cycles. Food and water was provided ad libitum throughout the course of the studies. Hairless 6-to-8-week old male BALB/c inbred athymic nude mice (Jackson Laboratory, Bar Harbor, ME, USA) were inoculated bilaterally with 0.2 mL of a 1:1 mixture of 10^7 PC3-CXCR4 cells in PBS and Matrigel (Corning, Tewksbury, MA, USA) subcutaneously in the left shoulder and 0.2 mL of a 1:1 mixture of 10^7 PC3-WT cells in PBS and Matrigel subcutaneously in the right shoulder. Imaging and biodistribution studies were performed three weeks post-implantation, when tumors were approximately 100–300 mm^3.
(§3) For the biodistribution studies, tumor-bearing animals (n = 5/compound/time point) were injected intravenously with 50–100 μL of a 9% v/v EtOH/saline solution containing approximately 1.1 MBq of the radioligand. […] The mice were euthanized at 1 or 2 h p.i. and tissues including blood, heart, lungs, liver, small intestine, large intestine, stomach (with contents), spleen, pancreas, kidneys, muscle, bone, PC3-WT tumors, PC3-CXCR4 tumors, and tail were collected. All organs were weighed and placed in test tubes for counting in a Wizard^2 Gamma Counter (PerkinElmer, Waltham, MA, USA). For comparison, 1% injected activity standards were prepared and counted along with the tissue samples. The tails were counted to correct for any dose extravasation. Activity in each tissue was corrected for decay and for injected activity and expressed as percent injected dose per gram of tissue (%ID/g) ± standard error.

[7] = as above; format: in vivo, BALB/c mice
Method: as §2, §3

[8] = 1 h p.i., blocked by co-injection of 5 mg/kg AMD-3100

T1 sequence (P61073 whole entry): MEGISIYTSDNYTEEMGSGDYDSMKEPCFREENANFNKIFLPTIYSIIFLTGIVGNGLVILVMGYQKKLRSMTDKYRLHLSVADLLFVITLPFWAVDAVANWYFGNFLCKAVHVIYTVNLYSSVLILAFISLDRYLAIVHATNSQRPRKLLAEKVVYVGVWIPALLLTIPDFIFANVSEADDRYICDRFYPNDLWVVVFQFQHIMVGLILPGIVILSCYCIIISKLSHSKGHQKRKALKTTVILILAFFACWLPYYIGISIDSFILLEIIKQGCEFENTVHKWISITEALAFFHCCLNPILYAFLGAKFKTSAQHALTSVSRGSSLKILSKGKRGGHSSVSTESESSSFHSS

IC50 vs [^18F]RPS-544 compared with IC50 vs [^68Ga]Pentixafor [2]: not significantly different
decrease in affinity relative to RPS-544 [4]: 30 fold
IC50 ([4]; vs 100 nM [^68Ga]Pentixafor, PC3-CXCR4 cells, 60 min 37 °C): 218 ± 38 nM
Hill Slope, Competitive Binding Experiment ([4]; vs [^68Ga]Pentixafor, value ± SD): 1.15 ± 0.34
Kd ([5]; saturation binding, PC3-CXCR4 cells): 176 ± 30 nM
Hill Slope, Saturation Binding Experiment ([5]; value ± SD): 1.05 ± 0.15
Bone tissue activity ([6]; 1 h p.i.): 1.44±0.04 %ID/g
Heart tissue activity ([6]; 1 h p.i.): 0.25±0.01 %ID/g
Kidneys tissue activity ([6]; 1 h p.i.): 7.43±0.96 %ID/g
Large Intestine tissue activity ([6]; 1 h p.i.): 0.29±0.06 %ID/g
Liver tissue activity ([6]; 1 h p.i.): 19.14 ± 0.42 %ID/g
Lungs tissue activity ([6]; 1 h p.i.): 1.01±0.09 %ID/g
Muscle tissue activity ([6]; 1 h p.i.): 0.19±0.03 %ID/g
PC3-CXCR4 Tumor Uptake ([6]; 1 h p.i.): 7.20 ± 0.30 %ID/g
PC3-CXCR4 Tumor-to-Tissue Ratio Blood ([6]; 1 h p.i.): 27.5 ± 0.4
PC3-CXCR4 Tumor-to-Tissue Ratio Bone ([6]; 1 h p.i.): 5.7 ± 0.4
PC3-CXCR4 Tumor-to-Tissue Ratio Kidneys ([6]; 1 h p.i.): 1.1 ± 0.4
PC3-CXCR4 Tumor-to-Tissue Ratio Liver ([6]; 1 h p.i.): 0.4 ± 0.2
PC3-CXCR4 Tumor-to-Tissue Ratio Lungs ([6]; 1 h p.i.): 8.0 ± 0.4
PC3-CXCR4 Tumor-to-Tissue Ratio Muscle ([6]; 1 h p.i.): 42.4 ± 0.1
PC3-CXCR4 Tumor-to-Tissue Ratio PC3-WT ([6]; 1 h p.i.): 2.5 ± 0.4
PC3-WT tumor activity ([6]; 1 h p.i.): 2.85±0.22 %ID/g
Pancreas tissue activity ([6]; 1 h p.i.): 0.28±0.02 %ID/g
Small Intestine tissue activity ([6]; 1 h p.i.): 3.67±0.44 %ID/g
Spleen tissue activity ([6]; 1 h p.i.): 2.49±0.04 %ID/g
Stomach tissue activity ([6]; 1 h p.i.): 0.16±0.03 %ID/g
Bone tissue activity [6, 8]: 0.44±0.15 %ID/g
Heart tissue activity [6, 8]: 0.13±0.04 %ID/g
Kidneys tissue activity [6, 8]: 5.10±0.33 %ID/g
Large Intestine tissue activity [6, 8]: 0.40±0.58 %ID/g
Liver tissue activity [6, 8]: 12.01 ± 4.67 %ID/g
Lungs tissue activity [6, 8]: 0.48±0.08 %ID/g
Muscle tissue activity [6, 8]: 0.17±0.16 %ID/g
PC3-CXCR4 tumor activity [6, 8]: 2.01±0.93 %ID/g
PC3-WT tumor activity [6, 8]: 1.21±0.47 %ID/g
Pancreas tissue activity [6, 8]: 0.32±0.01 %ID/g
Small Intestine tissue activity [6, 8]: 5.35±1.74 %ID/g
Spleen tissue activity [6, 8]: 0.12±0.03 %ID/g
Stomach tissue activity [6, 8]: 0.14±0.11 %ID/g
Bone tissue activity ([6]; 2 h p.i.): 1.26±0.06 %ID/g
Heart tissue activity ([6]; 2 h p.i.): 0.14±0.02 %ID/g
Kidneys tissue activity ([6]; 2 h p.i.): 5.05±0.80 %ID/g
Large Intestine tissue activity ([6]; 2 h p.i.): 4.60±0.57 %ID/g
Liver tissue activity ([6]; 2 h p.i.): 18.60±1.74 %ID/g
Lungs tissue activity ([6]; 2 h p.i.): 0.59±0.03 %ID/g
Muscle tissue activity ([6]; 2 h p.i.): 0.11±0.03 %ID/g
PC3-CXCR4 Tumor-to-Tissue Ratio Blood ([6]; 2 h p.i.): 51.1 ± 0.2
PC3-CXCR4 Tumor-to-Tissue Ratio Bone ([6]; 2 h p.i.): 3.5 ± 0.2
PC3-CXCR4 Tumor-to-Tissue Ratio Kidneys ([6]; 2 h p.i.): 0.9 ± 0.2
PC3-CXCR4 Tumor-to-Tissue Ratio Liver ([6]; 2 h p.i.): 0.2 ± 0.1
PC3-CXCR4 Tumor-to-Tissue Ratio Lungs ([6]; 2 h p.i.): 7.1 ± 0.2
PC3-CXCR4 Tumor-to-Tissue Ratio Muscle ([6]; 2 h p.i.): 38.8 ± 0.2
PC3-CXCR4 Tumor-to-Tissue Ratio PC3-WT ([6]; 2 h p.i.): 2.5 ± 0.2
PC3-CXCR4 tumor activity ([6]; 2 h p.i.): 4.31±0.47 %ID/g
PC3-WT tumor activity ([6]; 2 h p.i.): 1.66±0.08 %ID/g
Pancreas tissue activity ([6]; 2 h p.i.): 0.18±0.06 %ID/g
Small Intestine tissue activity ([6]; 2 h p.i.): 1.53±0.25 %ID/g
Spleen tissue activity ([6]; 2 h p.i.): 1.90±0.23 %ID/g
Stomach tissue activity ([6]; 2 h p.i.): 0.12±0.05 %ID/g
PC3-CXCR4 tumor uptake relative to [^18F]RPS-544 ([6]; mouse, in vivo): 2 fold
tumor-to-heart ratio ([6]; time not restated, follows the 1 h p.i. tumor-to-blood ratio): 28.8 ± 0.3
Blood tissue activity ([7]; 1 h p.i.): 0.30±0.08 %ID/g
Blood tissue activity [7, 8]: 0.26±0.15 %ID/g
Blood tissue activity ([7]; 2 h p.i.): 0.08±0.02 %ID/g
Structure (SMILES): FCCn1cc(-c2cc(CN3CCCNCCNCCCNCC3)ccc2CNCc2ccccn2)nn1 [RPS-534]
Cell-Associated Activity [1]: 18.5 ± 3.7 %IA
internalized activity [3]: approximately 2 %IA
internalized share of total cell-associated activity [3]: approximately 7%
reduction of tumor activity by blocking ([6]; blocking dose 5 mg/kg AMD-3100): approximately 70%
